Experimental data from ChEMBL document CHEMBL3885881, “DrugMatrix”.

Species: Rattus norvegicus
Experiment: DrugMatrix - Regimen: Daily Repeat
Format: toxicity, organism-based, Sprague-Dawley
Design: regimen Daily Repeat, gender Male, age 6-8 weeks
Settings: in vivo, po, route oral GAVAGE, vehicle .5 % CMC; for ABSOLUTE BASOPHIL / ABSOLUTE EOSINOPHIL / ABSOLUTE LYMPHOCYTE / ABSOLUTE MONOCYTE / ABSOLUTE SEGMENTED NEUTROPHIL / BASOPHIL / EOSINOPHIL / ERYTHROCYTE COUNT / HEMATOCRIT / HEMOGLOBIN / LEUKOCYTE COUNT / LYMPHOCYTE / MEAN CORPUSCULAR HEMOGLOBIN / MEAN CORPUSCULAR HEMOGLOBIN CONCENTRATION / MEAN CORPUSCULAR VOLUME / MONOCYTE / NEUTROPHIL / NUCLEATED RED BLOOD CELLS / PLATELET COUNT: tissue Blood; for ALANINE AMINOTRANSFERASE / ALBUMIN / ALKALINE PHOSPHATASE / ASPARTATE AMINOTRANSFERASE / BLOOD UREA NITROGEN / CARBON DIOXIDE / CHLORIDE / CHOLESTEROL / CREATINE PHOSPHOKINASE / CREATININE / GLUCOSE / LACTATE DEHYDROGENASE / LIPASE / PHOSPHORUS / POTASSIUM / SODIUM / TOTAL BILIRUBIN / TOTAL PROTEIN / URIC ACID: tissue Plasma
[1] = 0 mg/kg, 72 h, dose level Control, time 3 day
[2] = 0 mg/kg, 120 h, dose level Control, time 5 day
[3] = 15 mg/kg, 72 h, dose level Low, time 3 day

SMILES: COC(=O)c1ccc(O)cc1 [METHYLPARABEN]
- ABSOLUTE BASOPHIL [1]: 0 CELLS/uL
- ABSOLUTE EOSINOPHIL [1]: 0 CELLS/uL
- ABSOLUTE LYMPHOCYTE [1]: 10913.67 CELLS/uL
- ABSOLUTE MONOCYTE [1]: 85.33 CELLS/uL
- ABSOLUTE SEGMENTED NEUTROPHIL [1]: 1401 CELLS/uL
- BASOPHIL [1]: 0%
- EOSINOPHIL [1]: 0%
- ERYTHROCYTE COUNT [1]: 5.57 x10E6/uL
- HEMATOCRIT [1]: 35.58%
- HEMOGLOBIN [1]: 13.8 G/DL
- LEUKOCYTE COUNT [1]: 12.4 x10E3/uL
- LYMPHOCYTE [1]: 88%
- MEAN CORPUSCULAR HEMOGLOBIN [1]: 24.78 pg
- MEAN CORPUSCULAR HEMOGLOBIN CONCENTRATION [1]: 38.82 G/DL
- MEAN CORPUSCULAR VOLUME [1]: 63.88 fL
- MONOCYTE [1]: 0.67%
- NEUTROPHIL [1]: 11.33%
- NUCLEATED RED BLOOD CELLS [1]: 0 /100WBC
- PLATELET COUNT [1]: 1162.33 x10E3/uL
- ALANINE AMINOTRANSFERASE [1]: 53 u/L
- ALBUMIN [1]: 4.17 G/DL
- ALKALINE PHOSPHATASE [1]: 374.5 u/L
- ASPARTATE AMINOTRANSFERASE [1]: 89.5 u/L
- BLOOD UREA NITROGEN [1]: 16.33 mg/dL
- CARBON DIOXIDE [1]: 29.17 mmol/L
- CHLORIDE [1]: 97.67 MEQ/L
- CHOLESTEROL [1]: 77 mg/dL
- CREATINE PHOSPHOKINASE [1]: 464.83 u/L
- CREATININE [1]: 0.14 mg/dL
- GLUCOSE [1]: 164 mg/dL
- LACTATE DEHYDROGENASE [1]: 155.5 u/L
- LIPASE [1]: 9.17 u/L
- PHOSPHORUS [1]: 12.4 mg/dL
- POTASSIUM [1]: 6.91 MEQ/L
- SODIUM [1]: 141.47 MEQ/L
- TOTAL BILIRUBIN [1]: 0.2 mg/dL
- TOTAL PROTEIN [1]: 5.95 G/DL
- URIC ACID [1]: 1.72 mg/dL
- ABSOLUTE BASOPHIL [2]: 0 CELLS/uL
- ABSOLUTE EOSINOPHIL [2]: 20.5 CELLS/uL
- ABSOLUTE LYMPHOCYTE [2]: 13871.67 CELLS/uL
- ABSOLUTE MONOCYTE [2]: 60.5 CELLS/uL
- ABSOLUTE SEGMENTED NEUTROPHIL [2]: 980.67 CELLS/uL
- BASOPHIL [2]: 0%
- EOSINOPHIL [2]: 0.17%
- ERYTHROCYTE COUNT [2]: 5.65 x10E6/uL
- HEMATOCRIT [2]: 35.63%
- HEMOGLOBIN [2]: 14.08 G/DL
- LEUKOCYTE COUNT [2]: 14.93 x10E3/uL
- LYMPHOCYTE [2]: 92.83%
- MEAN CORPUSCULAR HEMOGLOBIN [2]: 24.97 pg
- MEAN CORPUSCULAR HEMOGLOBIN CONCENTRATION [2]: 39.55 G/DL
- MEAN CORPUSCULAR VOLUME [2]: 63.13 fL
- MONOCYTE [2]: 0.33%
- NEUTROPHIL [2]: 6.67%
- NUCLEATED RED BLOOD CELLS [2]: 0 /100WBC
- PLATELET COUNT [2]: 1248.17 x10E3/uL
- ALANINE AMINOTRANSFERASE [2]: 45.17 u/L
- ALBUMIN [2]: 4.27 G/DL
- ALKALINE PHOSPHATASE [2]: 405.67 u/L
- ASPARTATE AMINOTRANSFERASE [2]: 74.17 u/L
- BLOOD UREA NITROGEN [2]: 15.5 mg/dL
- CARBON DIOXIDE [2]: 30.17 mmol/L
- CHLORIDE [2]: 100.67 MEQ/L
- CHOLESTEROL [2]: 57 mg/dL
- CREATINE PHOSPHOKINASE [2]: 239.5 u/L
- CREATININE [2]: 0.17 mg/dL
- GLUCOSE [2]: 165.67 mg/dL
- LACTATE DEHYDROGENASE [2]: 90.5 u/L
- LIPASE [2]: 8.83 u/L
- PHOSPHORUS [2]: 12.32 mg/dL
- POTASSIUM [2]: 7.03 MEQ/L
- SODIUM [2]: 142.65 MEQ/L
- TOTAL BILIRUBIN [2]: 0.18 mg/dL
- TOTAL PROTEIN [2]: 6.03 G/DL
- URIC ACID [2]: 1.98 mg/dL
- ABSOLUTE BASOPHIL [3]: 0 CELLS/uL
- ABSOLUTE EOSINOPHIL [3]: 0 CELLS/uL
- ABSOLUTE LYMPHOCYTE [3]: 13173.33 CELLS/uL
- ABSOLUTE MONOCYTE [3]: 95.67 CELLS/uL
- ABSOLUTE SEGMENTED NEUTROPHIL [3]: 1364.33 CELLS/uL
- BASOPHIL [3]: 0%
- EOSINOPHIL [3]: 0%
- ERYTHROCYTE COUNT [3]: 5.6 x10E6/uL
- HEMATOCRIT [3]: 37.1%
- HEMOGLOBIN [3]: 14.57 G/DL
- LEUKOCYTE COUNT [3]: 14.63 x10E3/uL
- LYMPHOCYTE [3]: 90%
- MEAN CORPUSCULAR HEMOGLOBIN [3]: 26.03 pg
- MEAN CORPUSCULAR HEMOGLOBIN CONCENTRATION [3]: 39.27 G/DL
- MEAN CORPUSCULAR VOLUME [3]: 66.23 fL
- MONOCYTE [3]: 0.67%
- NEUTROPHIL [3]: 9.33%
- NUCLEATED RED BLOOD CELLS [3]: 0.67 /100WBC
- PLATELET COUNT [3]: 1171 x10E3/uL
- ALANINE AMINOTRANSFERASE [3]: 56.67 u/L
- ALBUMIN [3]: 4.2 G/DL
- ALKALINE PHOSPHATASE [3]: 324 u/L
- ASPARTATE AMINOTRANSFERASE [3]: 86 u/L
- BLOOD UREA NITROGEN [3]: 16.33 mg/dL
- CARBON DIOXIDE [3]: 26.67 mmol/L
- CHLORIDE [3]: 98.67 MEQ/L
- CHOLESTEROL [3]: 78 mg/dL
- CREATINE PHOSPHOKINASE [3]: 194 u/L
- CREATININE [3]: 0.14 mg/dL
- GLUCOSE [3]: 149.67 mg/dL
- LACTATE DEHYDROGENASE [3]: 120 u/L
- LIPASE [3]: 9.33 u/L
- PHOSPHORUS [3]: 14.03 mg/dL
- POTASSIUM [3]: 6.83 MEQ/L
- SODIUM [3]: 143.63 MEQ/L
- TOTAL BILIRUBIN [3]: 0.23 mg/dL
- TOTAL PROTEIN [3]: 5.9 G/DL
- URIC ACID [3]: 1.83 mg/dL
